Among the data in patent publication US10501451B2, “Selective NR2B antagonists” (BRISTOL-MYERS SQUIBB COMPANY, priority 2015, dated 2019) are concentration and Ki values, retold here.

Like-named read-outs stand apart in the source and are kept apart here.

Data set [1] is described as follows: Drug levels in blood plasma and homogenized brain tissue by mass spectroscopy. In kind it is in vivo. The following applies: iv, mouse; for concentration at 15 min: male, 3 mg/Kg i.v., occupancy study. On the procedure:
Ex Vivo Occupancy Assay. […] 7-9 weeks old male CD-1 mice were dosed intravenously in a vehicle consisting of 10% dimethylacetamide, 40% PEG-400, 30% hydroxypropyl betacyclodextrin, and 30% water with experimental compounds and the forebrains were harvested 15 minutes post-dosing by decapitation. The brain samples were immediately snap-frozen and stored at −80° C. On the following day, the dosed brain samples were thawed on ice for 15-20 minutes followed by homogenization using Polytron for 10 seconds in cold homogenization buffer composed of 50 mM KH2PO4 (pH adjusted to 7.4 with KOH), 1 mM EDTA, 0.005% Triton X 100 and protease inhibitor cocktail (Sigma Aldrich). The crude homogenates were further homogenized using a Dounce homogenizer and the homogenized membrane aliquots from all animals were flash-frozen and stored at −80° C. until further use. The whole homogenization process was performed on ice. For determining occupancy, the membrane homogenates were first thawed on ice and then needle-homogenized using a 25 gauge needle. The homogenized membrane (6.4 mg/ml) was added to a 96-well plate followed by addition of ^3H Ro 25-6981 (6 nM). The reaction mixture was incubated for 5 minutes on a shaker at 4° C. and then harvested onto GF/B filter plates (treated with 0.5% PEI for 1 hr at room temperature). The filter plates were dried at 50° C. for 20 mins, incubated with microscint 20 for 10 minutes and read on TopCount (Perkin Elmer). Each dose or compound group consisted of 4-5 animals. The control group of animals was dosed with vehicle alone. Membrane from each animal was added in triplicates to the assay plate. Non-specific binding was determined using 10 μM Ro 25-6981 added to the wells containing membrane homogenates from vehicle-dosed animals. […]
Drug levels were determined by mass spectroscopy in the usual manner. […]
Mouse Forced Swim Test (mFST). […] The duration of immobility was evaluated during the total 6 min of the test and expressed as duration (sec) of immobility. […]

Data set [2] addresses NR2B-subtype NMDA receptors (Rattus norvegicus (Rat), UniProt P35439+Q00960). The data set can be described thus: Radioligand binding assay (3H Ro 25-6981 competition, rat forebrain membranes). To be noted: 3H Ro 25-6981 (4 nM). How it is done: Radioligand Binding Assay. Binding experiments to determine binding to NR2B-subtype NMDA receptors were performed on forebrains of 8-10 weeks old male Sprague Dawley rats (Harlan, Netherlands) using ^3H Ro 25-6981 (Mutel V; Buchy D; Klingelschmidt A; Messer J; Bleuel Z; Kemp J A; Richards J G. Journal of Neurochemistry, 1998, 70(5):2147-2155. Rats were decapitated without anesthesia using a Guillotine (approved by animal ethics committee) and the harvested brains were snap-frozen and stored at −80° C. for 3-6 months for membrane preparation.
For membrane preparation, rat forebrains were thawed on ice for 20 minutes in homogenization buffer composed of 50 mM KH2PO4 (pH adjusted to 7.4 with KOH), 1 mM EDTA, 0.005% Triton X 100 and protease inhibitor cocktail (Sigma Aldrich). Thawed brains were homogenized using a Dounce homogenizer and centrifuged at 48000×g for 20 min. The pellet was resuspended in cold buffer and homogenized again using a Dounce homogenizer. Subsequently, the homogenate was aliquoted, snap-frozen and stored at −80° C. for not more than 3-4 months.
To perform the competition binding assay, thawed membrane homogenate was added to each well of a 96-well plate (20 μg/well). The experimental compounds were serially diluted in 100% DMSO and added to each row of the assay plate to achieve desired compound concentrations, keeping the DMSO concentration in the assay plate at 1.33% of the final reaction volume. Next, ^3H Ro 25-6981 (4 nM) was added to the assay plate. After incubation for 1 hr at room temperature, the membrane bound radioligand was harvested on to GF/B filter plates (treated with 0.5% PEI for 1 hr at room temperature). The filter plates were dried at 50° C. for 20 mins, incubated with microscint 20 for 10 minutes and finally, the counts were read on TopCount (Perkin Elmer).

Chain of NR2B-subtype NMDA receptors (Q00960 27-1482, other chains not shown): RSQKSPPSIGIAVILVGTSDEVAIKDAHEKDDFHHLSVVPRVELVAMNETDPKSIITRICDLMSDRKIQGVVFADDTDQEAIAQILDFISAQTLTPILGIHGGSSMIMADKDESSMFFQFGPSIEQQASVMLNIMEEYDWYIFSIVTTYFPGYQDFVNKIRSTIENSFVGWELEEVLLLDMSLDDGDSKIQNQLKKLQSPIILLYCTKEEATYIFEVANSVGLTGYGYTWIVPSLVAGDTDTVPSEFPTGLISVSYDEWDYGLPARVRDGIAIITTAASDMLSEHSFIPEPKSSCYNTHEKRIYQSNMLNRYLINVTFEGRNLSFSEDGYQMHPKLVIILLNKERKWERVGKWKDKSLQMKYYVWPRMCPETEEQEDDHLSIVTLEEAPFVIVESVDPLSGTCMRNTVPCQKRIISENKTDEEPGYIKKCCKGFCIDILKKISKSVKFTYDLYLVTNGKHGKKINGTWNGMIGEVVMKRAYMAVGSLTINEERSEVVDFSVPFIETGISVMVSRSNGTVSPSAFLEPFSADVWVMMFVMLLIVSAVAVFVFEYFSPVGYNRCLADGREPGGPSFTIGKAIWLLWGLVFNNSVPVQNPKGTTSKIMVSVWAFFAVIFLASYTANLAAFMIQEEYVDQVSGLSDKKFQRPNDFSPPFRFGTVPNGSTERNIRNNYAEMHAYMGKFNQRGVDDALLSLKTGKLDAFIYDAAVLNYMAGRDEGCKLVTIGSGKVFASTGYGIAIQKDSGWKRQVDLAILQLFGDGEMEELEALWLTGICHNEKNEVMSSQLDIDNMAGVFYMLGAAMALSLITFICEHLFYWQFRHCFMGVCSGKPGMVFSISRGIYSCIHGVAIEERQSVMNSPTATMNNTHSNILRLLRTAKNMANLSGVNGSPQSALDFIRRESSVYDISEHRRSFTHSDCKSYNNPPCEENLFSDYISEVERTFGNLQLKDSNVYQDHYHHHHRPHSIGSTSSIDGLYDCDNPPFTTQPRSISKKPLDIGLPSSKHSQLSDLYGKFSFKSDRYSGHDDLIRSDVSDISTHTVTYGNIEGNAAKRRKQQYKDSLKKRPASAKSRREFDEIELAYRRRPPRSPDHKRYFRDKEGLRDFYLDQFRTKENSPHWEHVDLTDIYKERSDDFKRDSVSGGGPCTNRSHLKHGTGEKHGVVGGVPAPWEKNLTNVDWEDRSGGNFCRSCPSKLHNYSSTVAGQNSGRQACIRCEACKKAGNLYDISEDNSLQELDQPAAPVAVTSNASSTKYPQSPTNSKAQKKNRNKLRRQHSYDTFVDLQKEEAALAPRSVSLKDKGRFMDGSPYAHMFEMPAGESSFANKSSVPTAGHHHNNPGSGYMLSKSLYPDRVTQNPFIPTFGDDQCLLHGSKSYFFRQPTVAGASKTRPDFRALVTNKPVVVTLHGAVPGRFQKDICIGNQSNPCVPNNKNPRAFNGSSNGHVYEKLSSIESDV

Regarding `Cc1ccc(CN2OCC(N3CCN(c4ccc(O)cn4)CC3)C2=O)cc1` (single isomer, unassigned) [Example 10, P-1, 4-(4-(5-hydroxypyridin-2-yl)piperazin-1-yl)-2-(4-methylbenzyl)isoxazolidin-3-one], the concentration at 15 min worked out at 863 nM in data set [1] (CD-1, brain, read-out: drug levels in the homogenized brain tissue) and 572 nM in data set [1] (CD-1, plasma, read-out: Drug levels in the blood plasma). The molecule further displayed a concentration at 21 min in data set [1] (plasma, 1 mg/Kg i.v., at end of forced swim test) of 207 nM. For the same molecule, the inhibition constant Ki in data set [2] (listed as 10, P-1, read-out: NR2B Binding Ki) is 3.2 nM; in data set [2] (read-out: binding Ki) it was 3.2 nM.

As usually defined, the Ki is a measure of affinity in units of concentration, obtained from inhibition or displacement.
